Among the data in US20090197926A1, “BENZIMIDAZOLES AND THEIR USE FOR THE TREATMENT OF DIABETES” (priority 2006, published 2009) are IC50 values, retold here.

This assay deals with T1, human DGAT1 (Homo sapiens, UniProt O75907).
T1 construct: made in house; host or cells: Sf9 insect cells (recombinant baculovirus); membrane fraction
T1 sequence (O75907 1-488): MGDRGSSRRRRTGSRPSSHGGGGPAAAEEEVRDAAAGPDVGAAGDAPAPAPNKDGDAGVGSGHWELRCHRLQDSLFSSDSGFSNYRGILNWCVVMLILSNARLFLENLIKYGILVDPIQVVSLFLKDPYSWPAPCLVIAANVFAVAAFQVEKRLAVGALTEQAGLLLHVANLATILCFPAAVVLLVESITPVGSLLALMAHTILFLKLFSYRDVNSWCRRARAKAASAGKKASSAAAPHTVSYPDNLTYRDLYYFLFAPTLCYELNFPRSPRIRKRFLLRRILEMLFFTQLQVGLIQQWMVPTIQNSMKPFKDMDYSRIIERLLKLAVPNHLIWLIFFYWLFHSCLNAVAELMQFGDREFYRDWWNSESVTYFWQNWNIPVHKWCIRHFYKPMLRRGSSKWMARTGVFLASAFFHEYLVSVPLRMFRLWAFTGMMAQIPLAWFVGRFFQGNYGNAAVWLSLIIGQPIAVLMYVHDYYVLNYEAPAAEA
Put plainly: Human Enzyme Assay (DGAT1 inhibition). Type of assay: biochemical. The note with it: human DGAT1 expressed in insect cell (sf9) membranes; 14C oleoyl coenzyme A, 1,2 dioleoyl-sn-glycerol, room temperature 30 minutes. The method, then: The in vitro assay to identify DGAT1 inhibitors uses human DGAT1 expressed in insect cell membranes as the enzyme source (Proc. Natl. Acad. Sci. 1998, 95, 13018-13023). Briefly, sf9 cells were infected with recombinant baculovirus containing human DGAT1 coding sequences and harvested after 48 h. Cells were lysed by sonication and membranes isolated by centrifuging at 28000 rpm for 1 h at 4° C. on a 41% sucrose gradient. The membrane fraction at the interphase was collected, washed, and stored in liquid nitrogen.
DGAT1 activity was assayed by a modification of the method described by Coleman (Methods in Enzymology 1992, 209, 98-102). Compound at 1-10 μM was incubated with 0.4 μg membrane protein, 5 mM MgCl2, and 100 μM 1,2 dioleoyl-sn-glycerol in a total assay volume of 200 μl in plastic tubes. The reaction was started by adding ^14C oleoyl coenzyme A (30 μM final concentration) and incubated at room temperature for 30 minutes. The reaction was stopped by adding 1.5 mL 2-propanol:heptane:water (80:20:2). Radioactive triolein product was separated into the organic phase by adding 1 mL heptane and 0.5 mL 0.1 M carbonate buffer pH 9.5. DGAT1 activity was quantified by counting aliquots of the upper heptane layer by liquid scintillography.
On to `O=C(O)C[C@H]1CC[C@H](c2ccc3[nH]c(-c4nnc(Nc5cc(F)c(F)cc5F)o4)nc3c2)CC1` [Example 1, trans-2-[4-[2-[5-[(2,4,5-Trifluorophenyl)amino]-1,3,4-oxadiazol-2-yl]-1H-benzoimidazol-5-yl]cyclohexyl]acetic Acid], for which half-maximal inhibition (IC50) required 11 nM.
In the case of `O=C(O)C[C@H]1CC[C@H](c2ccc3[nH]c(-c4nnc(Nc5ccc(F)c(F)c5)o4)nc3c2)CC1` [Example 2, trans-2-[4-[2-[5-[(3,4-Difluorophenyl)amino]-1,3,4-oxadiazol-2-yl]-1H-benzoimidazol-5-yl]cyclohexyl]acetic Acid] it was 10 nM; in that of `O=C(O)C[C@H]1CC[C@H](c2ccc3[nH]c(-c4nnc(Nc5cccc(OCc6ccccc6)c5)o4)nc3c2)CC1` [Example 3, {trans-4-[2-(5-{[3-(Benzyloxy)phenyl]amino}-1,3,4-oxadiazol-2-yl)-1H-benzimidazol-5-yl]cyclohexyl}acetic Acid], 6 nM; in that of `N#Cc1ccc(Nc2nnc(-c3nc4cc([C@H]5CC[C@H](CC(=O)O)CC5)ccc4[nH]3)o2)cc1` [Example 4, [trans-4-(2-{5-[(4-Cyanophenyl)amino]-1,3,4-oxadiazol-2-yl}-1H-benzimidazol-5-yl)cyclohexyl]acetic Acid], 19 nM.
In the case of `O=C(O)C[C@H]1CC[C@H](c2ccc3[nH]c(-c4nnc(Nc5ccc6c(c5)OCCO6)o4)nc3c2)CC1` [Example 6, (4-{2-[5-(2,3-Dihydrobenzo[1,4]dioxin-6-ylamino)[1,3,4]oxadiazol-2-yl]-1H-benzimidazol-5-yl}cyclohexyl)acetic Acid], half-maximal inhibition (IC50) was put at 54 nM.
In the case of `O=C(O)C[C@H]1CC[C@H](c2ccc3[nH]c(-c4nnc(Nc5ccc(Cl)cc5)o4)nc3c2)CC1` [Example 7, (4-{2-[5-(4-Chlorophenylamino)[1,3,4]oxadiazol-2-yl]-1H-benzimidazol-5-yl}-cyclohexyl)acetic Acid] it was 2 nM.
Turning to `O=C(O)C[C@H]1CC[C@H](c2ccc3[nH]c(-c4nnc(Nc5cccc(Cl)c5)o4)nc3c2)CC1` [Example 8, (4-{2-[5-(3-Chlorophenylamino)[1,3,4]oxadiazol-2-yl]-1H-benzimidazol-5-yl}-cyclohexyl)acetic Acid], the IC50 was found to be 8 nM.
In the case of `O=C(O)C[C@H]1CC[C@H](c2ccc3[nH]c(-c4nnc(Nc5ccc(F)cc5)o4)nc3c2)CC1` [Example 10, (4-{2-[5-(4-Fluorophenylamino)[1,3,4]oxadiazol-2-yl]-1H-benzimidazol-5-yl}cyclohexyl)acetic Acid] it was 10 nM; in that of `O=C(O)[C@H]1CC[C@H](Oc2ccc3nc(-c4nnc(Nc5cc(F)c(F)cc5F)o4)[nH]c3c2)CC1` [Example 14, trans-4-[[2-[5-[(2,4,5-Trifluorophenyl)amino]-1,3,4-oxadiazol-2-yl]-3H-benzoimidazol-5-yl]oxy]cyclohexane-1-carboxylic Acid], 43 nM.
In the case of `O=C(O)[C@H]1CC[C@@H](Oc2ccc3nc(-c4nnc(Nc5ccc(F)cc5)o4)[nH]c3c2F)CC1` [Example 15, cis-4-{4-Fluoro-2-[5-(4-fluorophenylamino)-1,3,4-oxadiazol-2-yl]-1H-benzimidazol-5-yloxy}cyclohexanecarboxylic Acid] it was 19 nM; in that of `O=C(O)[C@H]1CC[C@H](Oc2ccc3nc(-c4nnc(Nc5ccc(F)cc5)o4)[nH]c3c2F)CC1` [Example 16, trans-4-{4-Fluoro-2-[5-(4-fluorophenylamino)-1,3,4-oxadiazol-2-yl]-1H-benzimidazol-5-yloxy}cyclohexanecarboxylic acid], 23 nM.
In the case of `O=C(O)[C@H]1CC[C@@H](Oc2ccc3nc(-c4nnc(Nc5cc(F)c(F)cc5F)o4)[nH]c3c2F)CC1` [Example 17, cis-4-[[4-fluoro-2-[5-[(2,4,5-trifluorophenyl)amino]-1,3,4-oxadiazol-2-yl]-3H-benzoimidazol-5-yl]oxy]cyclohexane-1-carboxylic Acid] it was 13 nM; in that of `O=C(O)[C@H]1CC[C@H](Oc2ccc3nc(-c4nnc(Nc5cc(F)c(F)cc5F)o4)[nH]c3c2F)CC1` [Example 18, trans-4-[[4-fluoro-2-[5-[(2,4,5-trifluorophenyl)amino]-1,3,4-oxadiazol-2-yl]-3H-benzoimidazol-5-yl]oxy]cyclohexane-1-carboxylic Acid], 16 nM.
“(4-{2-[5-(3,4,5-Trifluorophenylamino)[1,3,4]oxadiazol-2-yl]-1H-benzimidazol-5-yl}cyclohexyl)acetic Acid [Example 11]” showed an IC50 of 3 nM.

The IC50 is the point on the concentration scale where inhibition reaches its midpoint. Read a low IC50 as higher potency.
